Several values for one entry are separate records, joined by “and”; a condition that tells them apart may be missing. Identical values can stand only once. Like-named read-outs stand apart in the source and are kept apart here.
What was measured:
[1] = Phase 1 multiple ascending dose (Part B) pharmacokinetics after low-fat meal; assay type: in vivo, human; conditions: for Tmax: median; for AUC: read-out: AUC0-τ; for CL renal: urine and plasma
Procedure: In Part B, 24 subjects were studied in 3 groups (Groups B1 to B3), with each group consisting of 8 subjects (6 received Compound I and 2 received placebo). The dose, dosing frequency, duration, and dietary state for Part B were determined based on review of available PK, safety, and tolerability data from Parts A and B.
All doses in Part B were administered following administration of a low-fat meal. In Groups B1 and B3, Compound I (200 mg for Group B1, 275 mg for Group B3) or placebo was administered twice daily (BID) on Days 1 to 6 and once on the morning of Day 7. In Group B2, subjects received QD dosing with 525 mg Compound I or placebo on Days 1 to 7.
In Part B, each subject participated in 1 treatment period. Subjects resided at the CRU from Day −1 (the day before dosing) until the morning of Day 10 (72 hours after the final dose on Day 7). All subjects returned for a Follow-up visit between 5 to 14 days after their final dose.
In Part B, all doses were administered after a low-fat meal. On Day 1 and Day 7 (days with post-dose PK sampling), subjects started a low-fat breakfast 30 minutes prior to dosing and were given 15 minutes to complete their meal; dosing occurred approximately 15 minutes after completion of breakfast. On dosing Days 2 through 6, subjects were to complete their breakfast within an hour prior to dosing. For the evening doses, subjects were given a standard meal and completed their meal between 1 and 2 hours prior to dosing.

[2] = Serum creatinine (Scr) change from baseline, MAD study (Part B); assay type: in vivo, human; conditions: for Number of subjects with change in Scr <0.3 mg/dL from baseline / Number of subjects with change in Scr ≥0.3 mg/dL from baseline / Number of subjects with percent change in Scr <30% from baseline / Number of subjects with percent change in Scr ≥30% from baseline: MAD
Procedure: In addition to the measurement of various PK parameters in both parts of the study, the changes in the subjects' serum creatinine levels were also evaluated in this study. Tables 6A and 6B summarize the change in level and percent change in serum creatinine from averaged screening and pre-dosing values for the subjects in SAD study in each treatment group, as applicable. Tables 7A and 7B summarize the change in level and percent change in scrum creatinine from averaged screening and pre-dosing values for the subjects in MAD study. […] In Part B of the study, 2 subjects (275 mg BID) experienced clinically significant TEAEs of increased creatinine on day 5. The mean change in serum creatinine from a combined screening and pre-dose baseline in the MAD part of the study is illustrated in FIG. 1. In addition, the mean change in creatinine level from combined screening and pre-dose level in the MAD part of the study is illustrated in FIG. 2.

[3] = 200 mg BID (B1), Day 1, low-fat meal
[4] = 200 mg BID (B1), Day 7, low-fat meal
[5] = 275 mg BID (B3), Day 1, low-fat meal
[6] = 275 mg BID (B3), Day 7, low-fat meal
[7] = 525 mg QD (B2), Day 1, low-fat meal
[8] = 525 mg QD (B2), Day 7, low-fat meal
[9] = human, plasma, oral, 200 mg, 200 mg BID (B1), Day 1, low-fat meal
[10] = human, plasma, oral, 200 mg, 200 mg BID (B1), Day 7, low-fat meal
[11] = human, plasma, oral, 275 mg, 275 mg BID (B3), Day 1, low-fat meal
[12] = human, plasma, oral, 275 mg, 275 mg BID (B3), Day 7, low-fat meal
[13] = human, plasma, oral, 525 mg, 525 mg QD (B2), Day 1, low-fat meal
[14] = human, plasma, oral, 525 mg, 525 mg QD (B2), Day 7, low-fat meal
[15] = human, plasma, oral, 200 mg BID (B1), Day 7, low-fat meal
[16] = human, plasma, oral, 275 mg BID (B3), Day 7, low-fat meal
[17] = human, plasma, oral, 525 mg QD (B2), Day 7, low-fat meal

For Cn1cc(-c2cn(-c3ccc(OC(F)(F)F)cc3)c(=O)c3ncn(C)c23)cn1 [Compound I], the “AUC0-τ(norm)” value [1, 3] was 11300 hr*ng/mL/(mg/kg), the Ae0-12 [1, 3] was 105 mg and the “Cmax (norm)” value [1, 3] was 1970 ng/mL/(mg/kg). The fe0-12 [1, 3] was 52.5%, the “AUC0-τ(norm)” value [1, 4] was 12600 hr*ng/mL/(mg/kg) and the Ae0-12 [1, 4] was 142 mg. For the same compound, the CL/F [1, 4] was 85.9 mL/min, the “CL/F(norm)” value [1, 4] was 1.32 (mL/min)/kg and the “Cmax (norm)” value [1, 4] was 1970 ng/mL/(mg/kg). The “RAAUC (accumulation ratio based on AUC0-τ)” value [1, 4] was 1.1 and 1.11, the fe0-12 [1, 4] was 71.2% and the λZ [1, 4] was 0.142 h⁻¹. For the same compound, the “Mean pre-dose (trough) Compound I concentration” value (from here on “Mean pre-dose”) ([1]; 200 mg BID, Day 7) was 1680 ng/mL, the “AUC0-τ(norm)” value [1, 5] was 9560 hr*ng/mL/(mg/kg) and the Ae0-12 [1, 5] was 162 mg. The “Cmax (norm)” value [1, 5] was 1540 ng/mL/(mg/kg), the fe0-12 [1, 5] was 58.9% and the “AUC0-τ(norm)” value [1, 6] was 14300 hr*ng/mL/(mg/kg). The Ae0-12 [1, 6] was 190 mg, the CL/F [1, 6] was 81.1 mL/min and the “CL/F(norm)” value [1, 6] was 1.16 (mL/min)/kg. For the same compound, the “Cmax (norm)” value [1, 6] was 1900 ng/mL/(mg/kg), the “RAAUC (accumulation ratio based on AUC0-τ)” value [1, 6] was 1.5 and the fe0-12 [1, 6] was 69.1%. The λZ [1, 6] was 0.123 h⁻¹, the “Fold increase in geometric mean Cmax” value ([1]; 275 mg BID vs 200 mg BID (1.4-fold increase in dose)) was 1.2 fold and the “Mean pre-dose” value ([1]; 275 mg BID, Day 7) was 3260 ng/mL. The “AUC0-τ(norm)” value [1, 7] was 10500 hr*ng/mL/(mg/kg), the Ae0-12 [1, 7] was 171 mg and the Ae0-24 [1, 7] was 242 mg. For the same compound, the “Cmax (norm)” value [1, 7] was 1140 ng/mL/(mg/kg), the fe0-12 [1, 7] was 32.6% and the fe0-24 [1, 7] was 46.1%. For the same compound, the “AUC0-τ(norm)” value [1, 8] was 13100 hr*ng/mL/(mg/kg), the Ae0-12 [1, 8] was 185 mg and the Ae0-24 [1, 8] was 284 mg. For the same compound, the CL/F [1, 8] was 89.4 mL/min, the “CL/F(norm)” value [1, 8] was 1.27 (mL/min)/kg and the “Cmax (norm)” value [1, 8] was 1260 ng/mL/(mg/kg). The “RAAUC (accumulation ratio based on AUC0-τ)” value [1, 8] was 1.3 and 1.25, the fe0-12 [1, 8] was 35.3% and the fe0-24 [1, 8] was 54.0%. For the same compound, the λZ [1, 8] was 0.0544 h⁻¹, the “Fold increase in geometric mean AUC0-∞” value ([1]; 525 mg QD vs 200 mg BID (2.6-fold increase in dose)) was 2.5 fold and the “Mean pre-dose” value ([1]; 525 mg QD, Day 7) was 897 ng/mL. The “Time to steady-state plasma concentrations” value ([1]; 200 and 275 mg BID and 525 mg QD) was ≤ 2 days, the Tmax at 1 day ([1]; human, plasma, oral, 200 mg BID, 275 mg BID, 525 mg QD, Day 1, read-out: Median tmax, range across regimens) was 2.3 to 3.5 h and the Tmax at 7 day ([1]; human, plasma, oral, 200 mg BID, 275 mg BID, 525 mg QD, Day 7, read-out: Median tmax, range across regimens) was 2.8 to 4 h. It also gave a Cmax [1, 9] of 6080 ng/mL, a Tmax [1, 9] of 3 h and an AUC [1, 9] of 34900 ng·h/mL. For the same compound, the Cmax [1, 10] was 6060 ng/mL, the Tmax [1, 10] was 4 h and the AUC [1, 10] was 38800 ng·h/mL. For the same compound, the Cmax [1, 11] was 6070 ng/mL, the Tmax [1, 11] was 2.28 h and the AUC [1, 11] was 37700 ng·h/mL. It also gave a Cmax [1, 12] of 7500 ng/mL, a Tmax [1, 12] of 2.75 h and an AUC [1, 12] of 56500 ng·h/mL. It also gave a Cmax [1, 13] of 8510 ng/mL, a Tmax [1, 13] of 3.5 h and an AUC [1, 13] of 78100 ng·h/mL. It also gave a Cmax [1, 14] of 9440 ng/mL, a Tmax [1, 14] of 3.53 h and an AUC [1, 14] of 97800 ng·h/mL. The half-life [1, 15] was 4.89 h, the half-life at 7 day [1, 15] was 4.9 h and the Vd/F ([1]; human, plasma, oral, 200 mg BID (B1), Day 7, low-fat meal, read-out: Vz/F) was 36.1 L. The Vd/F ([1]; human, plasma, oral, 200 mg BID (B1), Day 7, low-fat meal, read-out: Vz/F(norm)) was 0.576 L/kg, the half-life [1, 16] was 5.64 h and the half-life at 7 day [1, 16] was 5.6 h. It also gave a Vd/F ([1]; human, plasma, oral, 275 mg BID (B3), Day 7, low-fat meal, read-out: Vz/F) of 39.6 L, a Vd/F ([1]; human, plasma, oral, 275 mg BID (B3), Day 7, low-fat meal, read-out: Vz/F(norm)) of 0.568 L/kg and a half-life [1, 17] of 6.25 h. The half-life at 7 day [1, 17] was 6.3 h, the Vd/F ([1]; human, plasma, oral, 525 mg QD (B2), Day 7, low-fat meal, read-out: Vz/F) was 98.6 L and the Vd/F ([1]; human, plasma, oral, 525 mg QD (B2), Day 7, low-fat meal, read-out: Vz/F(norm)) was 1.4 L/kg. For the same compound, the CL renal ([1]; human, oral, 200 mg, 200 mg BID (B1), Day 1, low-fat meal) was 50.2 mL/min, the CL renal ([1]; human, oral, 200 mg, 200 mg BID (B1), Day 7, low-fat meal) was 61.2 mL/min and the CL renal ([1]; human, oral, 275 mg, 275 mg BID (B3), Day 1, low-fat meal) was 71.6 mL/min. For the same compound, the CL renal ([1]; human, oral, 275 mg, 275 mg BID (B3), Day 7, low-fat meal) was 56.1 mL/min, the CL renal ([1]; human, oral, 525 mg, 525 mg QD (B2), Day 1, low-fat meal) was 51.7 mL/min and the CL renal ([1]; human, oral, 525 mg, 525 mg QD (B2), Day 7, low-fat meal) was 48.3 mL/min. The “Subjects with mean change from baseline ≥0.3 mg/dL in Scr” value ([2]; MAD study, all subjects) was 25%, the “Subjects with mean percent change from baseline ≥30% in Scr” value ([2]; MAD study, all subjects) was 50% and the “Number of subjects with change in Scr <0.3 mg/dL from baseline” value ([2]; 400 mg (200 mg BID)) was 5. The “Number of subjects with change in Scr ≥0.3 mg/dL from baseline” value ([2]; 400 mg (200 mg BID)) was 1, the “Number of subjects with percent change in Scr <30% from baseline” value ([2]; 400 mg (200 mg BID)) was 1 and the “Number of subjects with percent change in Scr ≥30% from baseline” value ([2]; 400 mg (200 mg BID)) was 5. For the same compound, the “Number of subjects with change in Scr <0.3 mg/dL from baseline” value ([2]; 525 mg) was 5, the “Number of subjects with change in Scr ≥0.3 mg/dL from baseline” value ([2]; 525 mg) was 1 and the “Number of subjects with percent change in Scr <30% from baseline” value ([2]; 525 mg) was 3. The “Number of subjects with percent change in Scr ≥30% from baseline” value ([2]; 525 mg) was 3, the “Number of subjects with change in Scr <0.3 mg/dL from baseline” value ([2]; 550 mg (275 mg BID)) was 2 and the “Number of subjects with change in Scr ≥0.3 mg/dL from baseline” value ([2]; 550 mg (275 mg BID)) was 4. The “Number of subjects with percent change in Scr <30% from baseline” value ([2]; 550 mg (275 mg BID)) was 2, the “Number of subjects with percent change in Scr ≥30% from baseline” value ([2]; 550 mg (275 mg BID)) was 4 and the “Subjects with increases over the upper limit of normal (ULN) in serum creatinine” value ([2]; Part B (MAD), across all dose levels) was “about 56%”. For the same compound, the “Subjects with clinically significant TEAEs of increased creatinine” value ([2]; Part B, 275 mg BID, day 5) was 2 subjects.

Reference: patent US11925624B2, “Methods of administering anti-fibrotic therapy” (GENENTECH, INC., priority 2016, dated 2024)
